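In this assay, cells in 96-well plates receive the compound at five concentrations for 48 hours. Endpoints are linearly interpolated between the surrounding concentrations. At the TGI there is no net growth.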
How the values were obtained:
Test in all cases: inhibition of tumour cell growth, NCI panel, 48 h
[1] = tested on: A549 NSCLC
[2] = tested on: ACHN renal
[3] = tested on: BT-549 breast
[4] = tested on: COLO 205 colon
[5] = tested on: DU-145 prostate
[6] = tested on: EKVX NSCLC
[7] = tested on: HCT-116 colon
[8] = tested on: HCT-15 colon
[9] = tested on: HOP-62 NSCLC
[10] = tested on: HOP-92 NSCLC
[11] = tested on: HS 578T breast
[12] = tested on: HT29 colon
[13] = tested on: IGROV1 ovarian
[14] = tested on: K-562 leukemia
[15] = tested on: LOX IMVI melanoma
[16] = tested on: M14 melanoma
[17] = tested on: MALME-3M melanoma
[18] = tested on: MCF7 breast
[19] = tested on: MDA-MB-231 breast
[20] = tested on: MDA-N
[21] = tested on: MOLT-4 leukemia
[22] = tested on: NCI-H226 lung
[23] = tested on: NCI-H460 lung
[24] = tested on: NCI-H522 lung
[25] = tested on: NCI/ADR-RES ovarian
[26] = tested on: OVCAR-3 ovarian
[27] = tested on: OVCAR-4 ovarian
[28] = tested on: OVCAR-5 ovarian
[29] = tested on: OVCAR-8 ovarian
[30] = tested on: PC-3 prostate
[31] = tested on: RPMI-8226 leukemia
[32] = tested on: SF-268 CNS
[33] = tested on: SF-295 CNS
[34] = tested on: SK-MEL-2 melanoma
[35] = tested on: SK-MEL-5 melanoma
[36] = tested on: SK-OV-3 ovarian
[37] = tested on: SN12C renal
[38] = tested on: SNB-19 CNS
[39] = tested on: SNB-75 CNS
[40] = tested on: SR leukemia
[41] = tested on: SW-620 colon
[42] = tested on: T-47D breast
[43] = tested on: UACC-257 melanoma
[44] = tested on: UO-31 renal
[45] = tested on: 786-0 renal
[46] = tested on: A498 renal
[47] = tested on: CAKI-1 renal
[48] = tested on: CCRF-CEM leukemia
[49] = tested on: HL-60(TB) leukemia
[50] = tested on: KM12 colon
[51] = tested on: MDA-MB-435
[52] = tested on: NCI-H23 lung
[53] = tested on: RXF 393 renal
[54] = tested on: SK-MEL-28 melanoma
[55] = tested on: U251 CNS
[56] = tested on: UACC-62 melanoma

**Q.** For `COc1cccc(C2c3cc4c(cc3OC(N3CCOCC3)C2C)OCO4)c1` (stereo unspecified), which TGI [1] is on record?
**A.** 51.9 µM

**Q.** What about the TGI [2] of the same molecule?
**A.** > 100 µM

**Q.** And the TGI [3]?
**A.** 22.4 µM

**Q.** What about the TGI [4] of the same molecule?
**A.** 29.8 µM

**Q.** What about the TGI [5] of the same molecule?
**A.** > 100 µM

**Q.** What about the TGI [6] of the same molecule?
**A.** 87.7 µM

**Q.** What about the TGI [7] of the same molecule?
**A.** 34.9 µM

**Q.** And the TGI [8]?
**A.** > 100 µM

**Q.** What about the TGI [9] of the same molecule?
**A.** 60.8 µM

**Q.** What about the TGI [10] of the same molecule?
**A.** 85.3 µM

**Q.** And the TGI [11]?
**A.** 60.1 µM

**Q.** And the TGI [12]?
**A.** 25 µM

**Q.** What about the TGI [13] of the same molecule?
**A.** > 100 µM

**Q.** What about the TGI [14] of the same molecule?
**A.** > 100 µM

**Q.** What about the TGI [15] of the same molecule?
**A.** 18.1 µM

**Q.** And the TGI [16]?
**A.** 71 µM

**Q.** What about the TGI [17] of the same molecule?
**A.** > 100 µM

**Q.** And the TGI [18]?
**A.** 46.4 µM

**Q.** And the TGI [19]?
**A.** > 100 µM

**Q.** What about the TGI [20] of the same molecule?
**A.** 10.7 µM

**Q.** What about the TGI [21] of the same molecule?
**A.** 17.6 µM

**Q.** And the TGI [22]?
**A.** 43.4 µM

**Q.** What about the TGI [23] of the same molecule?
**A.** 37.7 µM

**Q.** What about the TGI [24] of the same molecule?
**A.** 75.3 µM

**Q.** And the TGI [25]?
**A.** > 100 µM

**Q.** What about the TGI [26] of the same molecule?
**A.** 38.6 µM

**Q.** What about the TGI [27] of the same molecule?
**A.** 61 µM

**Q.** What about the TGI [28] of the same molecule?
**A.** 71.4 µM

**Q.** And the TGI [29]?
**A.** > 100 µM

**Q.** And the TGI [30]?
**A.** 44.4 µM

**Q.** And the TGI [31]?
**A.** > 100 µM

**Q.** And the TGI [32]?
**A.** 85.5 µM

**Q.** What about the TGI [33] of the same molecule?
**A.** 35.7 µM

**Q.** What about the TGI [34] of the same molecule?
**A.** 83.6 µM

**Q.** What about the TGI [35] of the same molecule?
**A.** 15.6 µM

**Q.** And the TGI [36]?
**A.** > 100 µM

**Q.** What about the TGI [37] of the same molecule?
**A.** > 100 µM

**Q.** And the TGI [38]?
**A.** > 100 µM

**Q.** What about the TGI [39] of the same molecule?
**A.** > 100 µM

**Q.** What about the TGI [40] of the same molecule?
**A.** > 100 µM

**Q.** And the TGI [41]?
**A.** 16.7 µM

**Q.** What about the TGI [42] of the same molecule?
**A.** > 100 µM

**Q.** And the TGI [43]?
**A.** > 100 µM

**Q.** And the TGI [44]?
**A.** 43.4 µM

**Q.** Which TGI [45] does the source give for `COC(=O)C[C@H]1[C@]2(C)C3=C(C)[C@H](c4ccoc4)CC3O[C@@H]2[C@@H]2OC(=O)[C@]3(C)CCC(=O)[C@@]1(C)[C@@H]23` (stereo partly specified) here?
**A.** > 100 µM

**Q.** What about the TGI [46] of the same molecule?
**A.** > 100 µM

**Q.** What about the TGI [1] of the same molecule?
**A.** > 100 µM

**Q.** And the TGI [2]?
**A.** > 100 µM

**Q.** What about the TGI [3] of the same molecule?
**A.** > 100 µM

**Q.** What about the TGI [47] of the same molecule?
**A.** > 100 µM

**Q.** What about the TGI [48] of the same molecule?
**A.** 45.1 µM

**Q.** What about the TGI [4] of the same molecule?
**A.** > 100 µM

**Q.** And the TGI [5]?
**A.** > 100 µM

**Q.** And the TGI [7]?
**A.** > 100 µM

**Q.** And the TGI [8]?
**A.** > 100 µM

**Q.** What about the TGI [49] of the same molecule?
**A.** 54.8 µM

**Q.** What about the TGI [9] of the same molecule?
**A.** > 100 µM

**Q.** What about the TGI [10] of the same molecule?
**A.** > 100 µM

**Q.** What about the TGI [11] of the same molecule?
**A.** > 100 µM

**Q.** What about the TGI [12] of the same molecule?
**A.** > 100 µM

**Q.** What about the TGI [13] of the same molecule?
**A.** > 100 µM

**Q.** And the TGI [14]?
**A.** > 100 µM

**Q.** What about the TGI [50] of the same molecule?
**A.** > 100 µM

**Q.** What about the TGI [15] of the same molecule?
**A.** > 100 µM

**Q.** What about the TGI [16] of the same molecule?
**A.** > 100 µM

**Q.** And the TGI [17]?
**A.** > 100 µM

**Q.** What about the TGI [18] of the same molecule?
**A.** > 100 µM

**Q.** And the TGI [19]?
**A.** > 100 µM

**Q.** What about the TGI [51] of the same molecule?
**A.** > 100 µM

**Q.** And the TGI [20]?
**A.** > 100 µM

**Q.** What about the TGI [21] of the same molecule?
**A.** 46.8 µM

**Q.** And the TGI [52]?
**A.** > 100 µM

**Q.** What about the TGI [23] of the same molecule?
**A.** > 100 µM

**Q.** And the TGI [24]?
**A.** 91.1 µM

**Q.** What about the TGI [25] of the same molecule?
**A.** > 100 µM

**Q.** And the TGI [26]?
**A.** > 100 µM

**Q.** And the TGI [27]?
**A.** > 100 µM

**Q.** And the TGI [28]?
**A.** 67.3 µM

**Q.** And the TGI [29]?
**A.** > 100 µM

**Q.** And the TGI [31]?
**A.** 50.1 µM

**Q.** And the TGI [53]?
**A.** > 100 µM

**Q.** And the TGI [32]?
**A.** > 100 µM

**Q.** And the TGI [33]?
**A.** > 100 µM

**Q.** And the TGI [34]?
**A.** > 100 µM

**Q.** And the TGI [54]?
**A.** > 100 µM

**Q.** What about the TGI [35] of the same molecule?
**A.** > 100 µM

**Q.** What about the TGI [36] of the same molecule?
**A.** > 100 µM

**Q.** And the TGI [37]?
**A.** > 100 µM

**Q.** What about the TGI [39] of the same molecule?
**A.** > 100 µM

**Q.** And the TGI [40]?
**A.** 59.6 µM

**Q.** What about the TGI [41] of the same molecule?
**A.** > 100 µM

**Q.** And the TGI [42]?
**A.** > 100 µM

**Q.** And the TGI [55]?
**A.** > 100 µM

**Q.** What about the TGI [43] of the same molecule?
**A.** > 100 µM

**Q.** And the TGI [56]?
**A.** > 100 µM

**Q.** And the TGI [44]?
**A.** > 100 µM

Reference: PubChem BioAssay (NCI)
